Assay results reported in patent US20200163984A1, “USE OF ISOVALERYL SPIRAMYCIN I, II AND/OR III IN MANUFACTURING MEDICAMENT FOR TREATING AND/OR PREVENTING TUMOR, AND MEDICAMENT” (SHENYANG FUYANG PHARMACEUTICAL TECHNOLOGY CO., LTD., priority 2017, published 2020).
Converted amounts (≈) assume the structure as drawn.

Key:
[1] = tested on: human tissue lymphoma cell U937; details: U937, MTT, 48 h
Description: (§1) The purpose of the assay is to evaluate the in vitro cell proliferation inhibition or cytotoxic activity of a tested sample.
(§2) U937 and HL-60 were suspension cells, and cells in a logarithmic growth phase were selected and prepared into a 2×10^5/ml cell suspension by a RPMI 1640 culture medium containing 10% fetal bovine serum. And the cell suspension was inoculated in a 96-well culture plate, and each well was 50 μL and the 96-well culture plate was cultured at 37° C. and 5% CO2 for 24 hours. 50 μL of a culture medium containing different concentrations of the tested sample isovaleryl spiramycin I, isovaleryl spiramycin II, or isovaleryl spiramycin III was added in the experimental group, while a culture medium containing the same volume of solvent was added into the control group. Each group was set up with 3 parallel wells that were cultured at 37° C. and 5% CO2 for 48 h. And 10 μL of freshly prepared medium containing 5 mg/ml MTT was added into each well for continuous incubation for 4 hours at 37° C. The crystals were dissolved in 100 μL of a triple solution (SDS 10 g, 10 M HCl 0.1 mL, isobutanol 5 mL, diluted with distilled water to 100 mL), and incubated at 37° C. for 12 hours. The optical density value was measured at 492 nm with a microplate reader.
(§3) The inhibition rate of the medicament on tumor cell growth is calculated according to the following formula:
(§4) Tumor cell growth inhibition rate (%)=[A492 (negative control)−A492 (dosing group)]/A492 (negative control)×100%
(§5) And the half-inhibitory concentration (IC50) of the sample is determined therefrom.

[2] = tested on: human promyelocytic leukemia cell HL-60; details: HL-60, MTT, 48 h
Description: as §1, §2, §3, §4, §5

[3] = tested on: transplanted tumor of HT-29 cells; assay: HT-29 transplanted tumor in nude mice; details: for Tumor Volume (mm3) (d30): d 30
Description: (§6) Then cell concentration was adjusted to 1×10^7/ml with matrigel, then each nude mouse was inoculated subcutaneously with 0.2 ml of cells at its right armpit and recorded as the first day of inoculation. When the tumor grows to be greater than or equal to 100 mm^3, the mice were randomly divided into 11 groups with 6 mice in each group: isovaleryl spiramycin I groups with doses of 25, 50 and 100 mg/kg, isovaleryl spiramycin II groups with doses of 25, 50 and 100 mg/kg, and isovaleryl spiramycin III groups with doses of 25, 50 and 100 mg/kg. Each group was continuously administered intragastrically for 30 days with a dose of 20 ml/kg. The mice were sacrificed the next day after drug withdrawal and the indicators were tested. The long diameter and short diameter of the tumor, and the body weight of each mouse were recorded every 3 days from drug administration to nude mouse sacrifice.
(§7) The body weight of the nude mice and the long diameter (a) and short diameter (b) of the transplanted tumor were measured every 3 days, and the tumor volume (v), relative tumor volume (RTV) and relative tumor proliferation rate (T/C) are calculated respectively according to the following formulas, wherein V=a×b^2/2; RTV=V/V0 (V0 is the tumor volume before administration, V is the tumor volume before sacrifice), and T/C (%)=treatment group RTV/model control group RTV×100%.
(§8) Each mouse was weighed and sacrificed. After the tumor was completely stripped off from the body of the mouse, the non-tumor tissues such as blood stains and fat were removed to weigh the tumor and calculate the tumor growth inhibition rate. The average tumor weight of each group of mice is used as an indicator of efficacy. Tumor growth inhibition rate (%)=(1−the average tumor weight of the treatment group/the average tumor weight of the model group)×100%.

[4] = tested on: transplanted tumor of human prostate cancer cell PC3; assay: PC3 transplanted tumor in nude mice
Description: as §6, with “group: a model group, a cyclophosphamide group,” for “group:”
as §7, §8

[5] = tested on: transplanted tumor of human breast cancer cell MDA-MB-231; assay: MDA-MB-231 transplanted tumor in nude mice
Description: as §6, with “group: a model group, a cyclophosphamide group,” for “group:”
as §7, §8

[6] = HT-29, high dose (100 mg/kg in method) i.g. 30 days
[7] = HT-29, low dose (25 mg/kg in method) i.g. 30 days
[8] = HT-29, medium dose (50 mg/kg in method) i.g. 30 days
[9] = PC3, 25 mg/kg (low dose) i.g. 30 days
[10] = PC3, 50 mg/kg (medium dose) i.g. 30 days
[11] = PC3, 100 mg/kg (high dose) i.g. 30 days
[12] = MDA-MB-231, 25 mg/kg (low dose) i.g. 30 days
[13] = MDA-MB-231, 50 mg/kg (medium dose) i.g. 30 days
[14] = MDA-MB-231, 100 mg/kg (high dose) i.g. 30 days
[15] = MDA-MB-231, 30 mg/kg i.g. 30 days

CCC(=O)O[C@@H]1CC(=O)O[C@H](C)C/C=C/C=C/[C@H](O[C@H]2CC[C@H](N(C)C)[C@@H](C)O2)[C@H](C)C[C@H](CC=O)[C@H](O[C@@H]2O[C@H](C)[C@@H](O[C@H]3C[C@@](C)(O)[C@@H](OC(=O)CC(C)C)[C@H](C)O3)[C@H](N(C)C)[C@H]2O)[C@H]1OC [Isovaleryl spiramycin III, isovaleryl spiramycin III]
IC50 [1]: 15.59 ± 0.08 µg/mL (≈ 15.9 µM) | IC50 [2]: 21.38 ± 1.75 µg/mL (≈ 21.7 µM) | Relative Tumor Proliferation Rate (T/C) [3, 6]: 35.63% | tumor growth inhibition rate [3, 6]: 63.19% | Relative Tumor Proliferation Rate (T/C) [3, 7]: 85.54% | tumor growth inhibition rate [3, 7]: 19.22% | tumor volume and relative tumor volume compared with the model group ([3]; HT-29, low, medium and high doses, P<0.05): significantly lower | Relative Tumor Proliferation Rate (T/C) [3, 8]: 53.48% | tumor growth inhibition rate [3, 8]: 41.35% | Inhibition Rate (%) ([3]; HT-29 nude mice, 25 mg/kg): 19.22% | Tumor Weight ([3]; HT-29 nude mice, 25 mg/kg): 1.90 ± 0.39 g | Inhibition Rate (%) ([3]; HT-29 nude mice, 50 mg/kg): 41.35% | Tumor Weight ([3]; HT-29 nude mice, 50 mg/kg): 1.38 ± 0.37 g | Inhibition Rate (%) ([3]; HT-29 nude mice, 100 mg/kg): 63.19% | Tumor Weight ([3]; HT-29 nude mice, 100 mg/kg): 0.87 ± 0.34 g | Relative Tumor Proliferation Rate (T/C) ([3]; dose 25 mg/kg): 85.54% | Relative Tumor Volume (RTV) ([3]; dose 25 mg/kg): 12.32 ± 4.51 | Tumor Volume (mm3) (d 1) ([3]; dose 25 mg/kg): 154.49 ± 33.07 mm3 | Tumor Volume (mm3) (d30) ([3]; dose 25 mg/kg): 1803.16 ± 368.50 mm3 | Relative Tumor Proliferation Rate (T/C) ([3]; dose 50 mg/kg): 53.48% | Relative Tumor Volume (RTV) ([3]; dose 50 mg/kg): 7.70 ± 1.65 | Tumor Volume (mm3) (d 1) ([3]; dose 50 mg/kg): 161.76 ± 30.69 mm3 | Tumor Volume (mm3) (d30) ([3]; dose 50 mg/kg): 1252.64 ± 404.06 mm3 | Relative Tumor Proliferation Rate (T/C) ([3]; dose 100 mg/kg): 35.63% | Relative Tumor Volume (RTV) ([3]; dose 100 mg/kg): 5.13 ± 1.13 | Tumor Volume (mm3) (d 1) ([3]; dose 100 mg/kg): 160.38 ± 38.86 mm3 | Tumor Volume (mm3) (d30) ([3]; dose 100 mg/kg): 826.76 ± 259.70 mm3 | mouse weight compared with the model group ([3]; mouse, in vivo): no significant changes | Body Weight (g) (d1) ([3]; mouse, in vivo, 25 mg/kg): 21.31 ± 1.23 g | Body Weight (g) (d30) ([3]; mouse, in vivo, 25 mg/kg): 21.19 ± 1.52 g | Body Weight (g) (d1) ([3]; mouse, in vivo, 50 mg/kg): 21.22 ± 1.24 g | Body Weight (g) (d30) ([3]; mouse, in vivo, 50 mg/kg): 21.00 ± 0.98 g | Body Weight (g) (d1) ([3]; mouse, in vivo, 100 mg/kg): 21.34 ± 1.78 g | Body Weight (g) (d30) ([3]; mouse, in vivo, 100 mg/kg): 21.09 ± 1.43 g | Inhibition Rate (tumor growth inhibition rate) [4, 9]: 25.43% | Relative Tumor Proliferation Rate (T/C) [4, 9]: 75.75% | Relative Tumor Volume (RTV) [4, 9]: 14.82 ± 7.55 | Tumor Volume (d 1) [4, 9]: 146.91 ± 6.70 mm3 | Tumor Volume (d 30) [4, 9]: 1914.85 ± 729.54 mm3 | Tumor Weight [4, 9]: 1.40 ± 0.54 g | Inhibition Rate (tumor growth inhibition rate) ([4]; PC3, 25 mg/kg (low dose) i.g. 30 days, listed as isovaleryl spiramycin III): 25.44% | Inhibition Rate (tumor growth inhibition rate) [4, 10]: 40.16% | Relative Tumor Proliferation Rate (T/C) [4, 10]: 55.01% | Relative Tumor Volume (RTV) [4, 10]: 10.76 ± 2.24 | Tumor Volume (d 1) [4, 10]: 187.01 ± 50.28 mm3 | Tumor Volume (d 30) [4, 10]: 1935.79 ± 228.06 mm3 | Tumor Weight [4, 10]: 1.12 ± 0.45 g | Relative Tumor Proliferation Rate (T/C) ([4]; PC3, 50 mg/kg (medium dose) i.g. 30 days, listed as isovaleryl spiramycin III): 55.02% | Inhibition Rate (tumor growth inhibition rate) [4, 11]: 60.37% | Relative Tumor Proliferation Rate (T/C) [4, 11]: 34.57% | Relative Tumor Volume (RTV) [4, 11]: 6.76 ± 1.61 | Tumor Volume (d 1) [4, 11]: 155.11 ± 7.98 mm3 | Tumor Volume (d 30) [4, 11]: 1051.03 ± 272.23 mm3 | Tumor Weight [4, 11]: 0.75 ± 0.25 g | tumor volume and relative tumor volume compared with the model group ([4]; PC3, low, medium and high doses, P<0.05): significantly lower | mouse weight compared with the model group ([4]; mouse, in vivo): no significant changes | Inhibition Rate (tumor growth inhibition rate) [5, 12]: 24.35% | Relative Tumor Proliferation Rate (T/C) [5, 12]: 68.36% | Relative Tumor Volume (RTV) [5, 12]: 10.68 ± 2.47 | Tumor Volume (d 1) [5, 12]: 114.53 ± 6.52 mm3 | Tumor Volume (d 30) [5, 12]: 1217.28 ± 267.06 mm3 | Tumor Weight [5, 12]: 1.76 ± 0.20 g | Inhibition Rate (tumor growth inhibition rate) [5, 13]: 52.01% | Relative Tumor Proliferation Rate (T/C) [5, 13]: 50.12% | Relative Tumor Volume (RTV) [5, 13]: 7.83 ± 2.97 | Tumor Volume (d 1) [5, 13]: 112.00 ± 10.40 mm3 | Tumor Volume (d 30) [5, 13]: 860.48 ± 286.44 mm3 | Tumor Weight [5, 13]: 1.11 ± 0.54 g | Inhibition Rate (tumor growth inhibition rate) ([5]; MDA-MB-231, 50 mg/kg (medium dose) i.g. 30 days, listed as isovaleryl spiramycin III): 21.01% | Inhibition Rate (tumor growth inhibition rate) [5, 14]: 62.93% | Relative Tumor Proliferation Rate (T/C) [5, 14]: 35.27% | Relative Tumor Volume (RTV) [5, 14]: 5.51 ± 2.72 | Tumor Volume (d 1) [5, 14]: 115.76 ± 7.04 mm3 | Tumor Volume (d 30) [5, 14]: 647.02 ± 338.62 mm3 | Tumor Weight [5, 14]: 0.86 ± 0.44 g | tumor volume and relative tumor volume compared with the model group ([5]; MDA-MB-231, low, medium and high doses, P<0.05): significantly lower | mouse weight compared with the model group ([5]; mouse, in vivo): no significant changes

O=P1(N(CCCl)CCCl)NCCCO1 (centres unmarked) [Cyclophosphamide, cyclophosphamide, reference compound]
Inhibition Rate (%) ([3]; HT-29 nude mice, 30 mg/kg): 78.87% | Tumor Weight ([3]; HT-29 nude mice, 30 mg/kg): 0.50 ± 0.25 g | Body Weight (g) (d1) ([3]; HT-29 nude mice, 30 mg/kg, d1): 21.42 ± 1.35 g | Body Weight (g) (d30) ([3]; HT-29 nude mice, 30 mg/kg, d30): 18.69 ± 1.21 g | Relative Tumor Proliferation Rate (T/C) ([3]; dose 30 mg/kg): 19.84% | Relative Tumor Volume (RTV) ([3]; dose 30 mg/kg): 2.86 ± 1.44 | Tumor Volume (mm3) (d 1) ([3]; dose 30 mg/kg): 176.59 ± 36.81 mm3 | Tumor Volume (mm3) (d30) ([3]; dose 30 mg/kg): 477.12 ± 166.46 mm3 | Body Weight (d 1) ([4]; PC3, 30 mg/kg i.g. 30 days): 21.57 ± 0.75 g | Body Weight (d 30) ([4]; PC3, 30 mg/kg i.g. 30 days): 16.43 ± 0.78 g | Inhibition Rate (tumor growth inhibition rate) ([4]; PC3, 30 mg/kg i.g. 30 days): 70.03% | Relative Tumor Proliferation Rate (T/C) ([4]; PC3, 30 mg/kg i.g. 30 days): 29.33% | Relative Tumor Volume (RTV) ([4]; PC3, 30 mg/kg i.g. 30 days): 5.73 ± 2.23 | Tumor Volume (d 1) ([4]; PC3, 30 mg/kg i.g. 30 days): 155.36 ± 34.96 mm3 | Tumor Volume (d 30) ([4]; PC3, 30 mg/kg i.g. 30 days): 834.50 ± 135.35 mm3 | Tumor Weight ([4]; PC3, 30 mg/kg i.g. 30 days): 0.56 ± 0.17 g | Body Weight (d 1) [5, 15]: 21.65 ± 1.50 g | Body Weight (d 30) [5, 15]: 19.26 ± 1.49 g | Inhibition Rate (tumor growth inhibition rate) [5, 15]: 70.54% | Relative Tumor Proliferation Rate (T/C) [5, 15]: 37.73% | Relative Tumor Volume (RTV) [5, 15]: 5.89 ± 2.84 | Tumor Volume (d 1) [5, 15]: 116.90 ± 7.18 mm3 | Tumor Volume (d 30) [5, 15]: 691.84 ± 337.21 mm3 | Tumor Weight [5, 15]: 0.38 ± 0.27 g
